Here are results for 13 compounds from US20240124389A1, “COMPOUND OR SALT THEREOF, LIPID PARTICLES, AND PHARMACEUTICAL COMPOSITION” (FUJIFILM Corporation, priority 2021, published 2024).

The subject of one data set is EPO mRNA. Description: mRNA encapsulation rate of EPO mRNA-encapsulating lipid particles. The format is physicochemical. The procedure:
(§1) The compounds described in Table 1, the neutral lipid, cholesterol (product name: Cholesterol HP; NIPPON FINE CHEMICAL CO., LTD.), and 1,2-dimyristoyl-rac-glycero-3-(methylpolyoxyethylene 2000) (hereinafter, called DMG-PEG2000) (product name: SUNBRIGHT® GM-020; NOF corporation) were dissolved in ethanol at a molar ratio in Table 1 such that the total lipid concentration became 20 mmol/L, thereby obtaining an oil phase.
(§2) As the neutral lipid, 1,2-distearoyl-sn-glycero-3-phosphocholine (product name: COATSOME® MC-8080; NOF corporation) (hereinafter, DSPC), or L-α-dioleoyl phosphatidylethanolamine (Hereinafter, DOPE) (product name: COATSOME® ME-8181; NOF corporation), or 1,2-dioleoyl-sn-glycero-3-phosphocholine (hereinafter, DOPC) (product name: COATSOME® MC-8181; NOF corporation) was used.
(§3) EPO mRNA (product name: CleanCap EPO mRNA (5moU); TriLink) was diluted with 50 mmol/L citrate buffer having a pH 4 such that the weight ratio of total lipid concentration to mRNA concentration is about 16:1 to 64:1, thereby obtaining a water phase. Then, the water phase and the oil phase were mixed together using NanoAssemblr (Precision NanoSystems) such that the volume ratio of water phase:oil phase was 3:1, and the mixed solution was 1.5-fold diluted with phosphate buffered saline (PBS), thereby obtaining a dispersion liquid of mRNA lipid particles. The dispersion liquid was dialyzed with a 10% aqueous sucrose solution using a dialysis cassette (Slide-A-Lyzer G2, MWCO: 10 kD, Thermo Fisher Scientific) to remove ethanol, thereby obtaining EPO mRNA-encapsulating lipid particles.
15 to 30 μL of a 3 mol/L aqueous sodium acetate solution and 4.5 to 9 μL of glycogen were added to 30 to 60 μL of the lipid particles retaining mRNA, and 0.75 to 1.5 mL of ethanol was added thereto, so that only the nucleic acids were precipitated while the lipid was dissolved. Then, the supernatant was removed by centrifugation. The precipitates were air-dried for 15 minutes or longer, then water was added thereto to redissolve the precipitates, and the concentration thereof was measured using Nanodrop NF1000 (Thermo Fisher Scientific), thereby quantifying the total mRNA concentration.
The mRNA concentration was quantified using a Quant-iT RiboGreen RNA Assay Kit (Thermo Fisher Scientific) according to the protocol. First, a 20×TE buffer included in the above-described kit was diluted with water, thereby obtaining a 1×TE buffer. TE represents Tris/EDTA (ethylenediaminetetraacetic acid). In order to quantify only mRNA in the outer water phase, the dispersion liquid of lipid particles retaining mRNA was 10,000-fold diluted with the 1×TE buffer. 100 μL of the 10,000-fold diluted dispersion liquid of lipid particles was put into a 96-well plate, then 100 μL of a RiboGreen reagent (reagent included in the Quanti-iT Ribogreen RNA Assay Kit described above) 2,000-fold diluted with the 1×TE buffer was added to a sample, and fluorescence (excitation wavelength: 485 nm, fluorescence wavelength: 535 nm) was measured using a plate reader Infinite F200 (TECAN), thereby quantifying the mRNA concentration in the outer water phase.
By using the quantification results of the total mRNA concentration and the mRNA concentration in the outer water phase that were obtained through the above steps, the mRNA encapsulation rate of the mRNA lipid particles was calculated according to the following Equation.
mRNA encapsulation rate (%)=(total mRNA concentration-mRNA concentration in outer water phase)/total mRNA concentration×100

The nature of data set [1]: Particle size of EPO mRNA-encapsulating lipid particles. The format is physicochemical. As to the method:
as §1, §2, §3
The particle size of the mRNA-encapsulating lipid particles was measured by 10-fold diluting the dispersion liquid of lipid particle with phosphate buffered saline (PBS) using Zeta-potential & Particle size Analyzer ELS-Z2 (Otsuka Electronics Co., Ltd.).

The test system of another data set is human EPO. In words: Measurement of EPO enzyme activity (EPO protein in blood plasma of mice after intravenous administration of EPO mRNA lipid particles). The format is in vivo. As to conditions: C57BL/6J mice, tail-vein i.v., mRNA 0.1 mg/kg, plasma 20 to 24 hours. The procedure:
as §1, §2, §3
The dispersion liquid of mRNA lipid particles prepared in above-described <Preparation of EPO mRNA-encapsulating lipid particles> was tail-vein intravenously administered to C57BL/6J mice at a mRNA dosage of 0.1 mg/kg. 20 to 24 hours after the administration, blood was collected from the caudal vena cava, thereby obtaining blood plasma. The human EPO enzyme activity was quantified by using the obtained blood plasma and ab119522 Erythropoietin (EPO) Human Elisa Kit (Abcam.plc). The quantitative value is described as a relative amount of EPO protein in a case where Comparative Example 1 is 1.

Where [2] appears, read: aminolipid 50 / DSPC 10 / cholesterol 38.5 / DMG-PEG2000 1.5 mol %, lipid/nucleic acid 20 wt/wt.
Setting [3] is: aminolipid 50 / DOPE 10 / cholesterol 38.5 / DMG-PEG2000 1.5 mol %, lipid/nucleic acid 64 wt/wt.
Where [4] appears, read: aminolipid 45 / DOPE 10 / cholesterol 43.5 / DMG-PEG2000 1.5 mol %, lipid/nucleic acid 64 wt/wt.

Molecules are shown by their SMILES.

With `CCCCC/C=C\C/C=C\CCCCCCCCC(CCCCCCCC/C=C\C/C=C\CCCCC)OC(=O)CCCN(C)C` [Comparative Example 1, reference compound], the “Nucleic acid encapsulation rate” value with EPO mRNA (setting [2]) is 93.4%. In data set [1] (setting [2]), this compound yielded a Particle size of 89.0 nm. Besides, the “Relative amount of EPO protein (with respect to Comparative Example 1)” value (“Relative amount of EPO protein” below) in the data set on human EPO (setting [2]) is 1.

In the case of `CCCCCCC(CCC(=O)OCC(CCCCC)CCCCC)OC(=O)OCCN(CCOC(=O)OC(CCCCCC)CCC(=O)OCC(CCCCC)CCCCC)CCN(CC)CC` (stereo not drawn) [Example 17, Bis(2-pentylheptyl) 10-(2-(diethylamino)ethyl)-4,16-dihexyl-6,14-dioxo-5,7,13,15-tetraoxa-10-azanonadecanedioate], the “Nucleic acid encapsulation rate” value in the data set on EPO mRNA (setting [3]) is on record as 96.9%. This compound returned a Particle size in data set [1] (setting [3]) of 81.7 nm. In addition, the “Relative amount of EPO protein” value with human EPO (setting [3]) is listed as 2.93.

`CCCCCCCCOC(=O)CCCC(CCCC(=O)OCCCCCCCC)OC(=O)OCCN(CCOC(=O)OC(CCCC(=O)OCCCCCCCC)CCCC(=O)OCCCCCCCC)CCN(CC)CC` [Example 33, Dioctyl 11-(2-(diethylamino)ethyl)-5,17-bis(4-(octyloxy)-4-oxobutyl)-7,15-dioxo-6,8,14,16-tetraoxa-1 1-azahenicosanedioate]: the “Nucleic acid encapsulation rate” value with EPO mRNA (setting [3]) turned out to be 88.8%. In addition, in data set [1] (setting [3]), the Particle size is listed as 132.8 nm. The “Relative amount of EPO protein” value in the data set with human EPO (setting [3]) amounted to 2.70.

In the case of `CCCCCCC(CCCC(=O)OCCC12CC3CC(CC(C3)C1)C2)OC(=O)OCCN(CCOC(=O)OC(CCCCCC)CCCC(=O)OCCC12CC3CC(CC(C3)C1)C2)CCN(CC)CC` (stereo not drawn) [Example 27, Bis (2-(((3r,5r,7r)-adamantan-1-yl)ethyl)11-(2-(diethylamino)ethyl)-5,17-dihexyl-7,15-dioxo-6,8,1 4,16-tetraoxa-11-azahenicosanedioate], the “Nucleic acid encapsulation rate” value with EPO mRNA (setting [3]) came to 99.8%. This compound also returned a Particle size in data set [1] (setting [3]) of 101.5 nm. In addition, the “Relative amount of EPO protein” value in the data set on human EPO (setting [3]) is reported as 3.60.

With `CCCCCCC(CCCC(=O)OCC(CCCCC)CCCCC)OC(=O)OCCN(CCOC(=O)OC(CCCCCC)CCCC(=O)OCC(CCCCC)CCCCC)CCN(CC)CC` (stereo not drawn) [Example 10, bis(2-pentylheptyl) 11-(2-(diethylamino)ethyl)-5,17-dihexyl-7,15-dioxo-6,8,14,16-tetraoxa-11-azahenicosanedioate], in the data set with EPO mRNA (setting [3]), the “Nucleic acid encapsulation rate” value is 100.0%. The compound also registered a Particle size in data set [1] (setting [3]) of 88.0 nm. In addition, the “Relative amount of EPO protein” value with human EPO (setting [3]) amounted to 2.39.

As to `CCCCCCC(CCCC)COC(=O)CCCCCCCCC(CCCCCC)OC(=O)OCCN(CCCN(CC)CC)CCOC(=O)OC(CCCCCC)CCCCCCCCC(=O)OCC(CCCC)CCCCCC` (stereo not drawn) [Example 3, Bis(2-butyloctyl) 16-(3-(diethylamino)propyl)-10,22-dihexyl-12,20-dioxo-11,13,19,21-tetraoxa-16-azahentriaco ntanedioate], in the data set on EPO mRNA (setting [3]), the “Nucleic acid encapsulation rate” value is 97.8%. For the same compound, the Particle size in data set [1] (setting [3]) turned out to be 81.2 nm. The “Relative amount of EPO protein” value with human EPO (setting [3]) is 1.92.

Consider `CCCCCCC(CCCC(=O)OCC(CCCCC)CCCCC)OC(=O)OCCN(CCCCN(CC)CC)CCOC(=O)OC(CCCCCC)CCCC(=O)OCC(CCCCC)CCCCC` (stereo not drawn) [Example 14, Bis(2-pentylheptyl) 11-(4-(diethylamino)butyl)-5,17-dihexyl-7,15-dioxo-6,8,14,16-tetraoxa-11-azahenicosanedioate], for which the “Nucleic acid encapsulation rate” value in the data set with EPO mRNA (setting [3]) came to 98.8%. In data set [1] (setting [3]), this compound displayed a Particle size of 75.9 nm. The “Relative amount of EPO protein” value in the data set on human EPO (setting [3]) came to 3.85.

With `CCCCCCCCOC(=O)CCCC(CCCC(=O)OCCCCCCCC)OC(=O)OCCN(CCOC(=O)OC(CCCC(=O)OCCCCCC)CCCC(=O)OCCCCCC)CCN(CC)CC` [Example 42], the “Nucleic acid encapsulation rate” value with EPO mRNA (setting [4]) turned out to be 98.9%. The same compound returned a Particle size in data set [1] (setting [4]) of 128.2 nm. Besides, the “Relative amount of EPO protein” value in the data set on human EPO (setting [4]) is on record as 4.28.

Take `CCCCCCC(CCCC(=O)OCC(CCCCC)CCCCC)OC(=O)OCCN(CCOC(=O)OC(CCCCCC)CCCC(=O)OCC(CCCCC)CCCCC)CCN(C)C` (stereo not drawn) [Example 11, Bis(2-pentylheptyl) 11-(2-(dimethylamino)ethyl)-5,17-dihexyl-7,15-dioxo-6,8,14,16-tetraoxa-11-azahenicosanedio ate]: in the data set on EPO mRNA (setting [3]), the “Nucleic acid encapsulation rate” value was 98.6%. The compound further registered a Particle size in data set [1] (setting [3]) of 73.2 nm. The “Relative amount of EPO protein” value with human EPO (setting [3]) worked out at 2.70.

With `CCCCCCC(CCCC(=O)OCC(CCCCC)CCCCC)OC(=O)OCCCCN(CCCCOC(=O)OC(CCCCCC)CCCC(=O)OCC(CCCCC)CCCCC)CCN(CC)CC` (stereo not drawn) [Example 16, Bis(2-pentylheptyl) 13-(2-(diethylamino)ethyl)-5,21-dihexyl-7,19-dioxo-6,8,18,20-tetraoxa-13-azapentacosanedio ate], the “Nucleic acid encapsulation rate” value with EPO mRNA (setting [3]) turned out to be 97.3%. For the same compound, the Particle size in data set [1] (setting [3]) was 69.4 nm. Also, the “Relative amount of EPO protein” value with human EPO (setting [3]) is listed as 2.53.

In the case of `CCCCCC(CCCCC)COC(=O)CCCC(CC)OC(=O)OCCN(CCOC(=O)OC(CC)CCCC(=O)OCC(CCCCC)CCCCC)CCN(CC)CC` (stereo not drawn) [Example 20, Bis(2-pentylheptyl) 11-(2-(diethylamino)ethyl)-5,17-dietyl-7,15-dioxo-6,8,14,16-tetraoxa-11-azahenicosanedioate], the “Nucleic acid encapsulation rate” value in the data set on EPO mRNA (setting [3]) came out at 100.0%. In data set [1] (setting [3]), this compound yielded a Particle size of 133.4 nm. Further, the “Relative amount of EPO protein” value in the data set on human EPO (setting [3]) was 3.22.

As for `CCCCCCCC(CCCC(=O)OCC(CCCCC)CCCCC)OC(=O)OCCN(CCOC(=O)OC(CCCCCCC)CCCC(=O)OCC(CCCCC)CCCCC)CCN(CC)CC` (stereo not drawn) [Example 24, Bis(2-pentylheptyl) 11-(2-(diethylamino)ethyl)-5,17-diheptyl-7,15-dioxo-6,8,14,16-tetraoxa-11-azahenicosanedioate], the “Nucleic acid encapsulation rate” value in the data set with EPO mRNA (setting [3]) was found to be 97.9%. Further, the Particle size in data set [1] (setting [3]) stood at 80.6 nm. The “Relative amount of EPO protein” value in the data set on human EPO (setting [3]) came out at 1.46.

For `CCCCCCCC/C=C\CCCCCCCC(=O)OCCN(CCOC(=O)OC(CCCCCC)CCCCCCCCC(=O)OCC(CCCCCC)CCCCCCCC)CCN(CC)CC` (stereo not drawn) [Comparative Example 2, reference compound], the “Nucleic acid encapsulation rate” value in the data set with EPO mRNA (setting [3]) is on record as 100%. In data set [1] (setting [3]), this compound registered a Particle size of 88.8 nm. Moreover, the “Relative amount of EPO protein” value with human EPO (setting [3]) was 0.74.
